Reference: patent US7214495B2, “Screening method” (Takeda Pharmaceutical Company Limited, priority 2002, dated 2007)

Columns and labels:
human-derived GPR40 = molecular target: T1, human-derived GPR40 (Homo sapiens, UniProt O14842); assay: Intracellular calcium change (FLIPR) in CHO-hGPR40 No. 104, eicosanoids; format: cell-based; conditions: added in 10^−5 M to 10^−6 M; no response in vector-only control
T1 construct: The DNA fragment encoding human GPR40 was acquired by the following PCR procedures; expressed in transfected cells; host or cells: CHO-K1 (transient, Lipofectamine)
Experimental: The CHO cell line (CHO-hGPR40 No. 104) wherein human GPR40 prepared by publicly known methods using the human GPR40 expression vector prepared in REFERENCE EXAMPLE 1 was expressed was cultured in MEMα medium (Invitrogen) containing 10% fetal calf serum (Invitrogen), unless otherwise indicated. The cells cultured were rinsed with PBS (Invitrogen), scraped in trypsin/EDTA solution (Invitrogen) and recovered by centrifugal operation. The number of the cells obtained was counted and diluted so as to contain 3×10^4 cells/100 μl. The dilution was dispensed in a Black walled 96-well plate (Costar) in 100 μl/well, followed by incubation overnight in a CO2 incubator. The changes in intracellular calcium level in this case were measured using FLIPR (Molecular Device). In order to determine the changes in the intracellular calcium ion level on FLIPR, the cells were pre-treated by the following procedures. First, for the purpose of adding a fluorescent dye Fluo-3 AM (DOJIN) to the cells or washing the cells immediately before the FLIPR assay, an assay buffer was prepared. A solution obtained by adding 20 ml of 1M HEPES (pH 7.4) (DOJIN) to 1000 ml of HBSS (Invitrogen) was prepared (hereinafter HBSS/HEPES solution), to which 10 ml of a solution mixture obtained by dissolving 710 mg of Probenecid (Sigma) in 5 ml of 1N NaOH and further adding 5 ml of HBSS/HEPES solution was added. The resulting solution was used as the assay buffer. Next, 50 μg of Fluo-3AM was dissolved in 21 μl of DMSO (DOJIN) and an equal volume of 20% Pulronic acid (Molecular Probes) was added to and mixed with the solution. The mixture was then added to 10.6 ml of the assay buffer supplemented with 105 μl of fetal calf serum to prepare a fluorescent dye solution. The medium for the CHO cell line cultured was removed. Immediately thereafter, the fluorescent dye solution was dispensed in 100 μl each/well and the cells were incubated in a CO2 incubator for an hour so that the fluorescent dye was taken up into the cells. The cells after the incubation was washed with the assay buffer described above and set on FLIPR. A test sample added to the CHO cell line was prepared using the assay buffer and set on FLIPR at the same time. After the pre-treatment above was made, the changes in intracellular calcium level after the addition of various test samples were measured on FLIPR. […] It was thus noted that GPR40 was responsive to these compounds as well.

human GPR40 = molecular target: T2, human GPR40 (Homo sapiens, UniProt O14842); assay: EC50 by FLIPR calcium assay in CHO cells stably expressing human GPR40; format: cell-based; conditions: intracellular calcium, FLIPR, stable CHO line; for EC50: read-out: EC50 Human GPR40
T2 construct: The resulting fragment (ca. 1 kb) was introduced into vector pAKKO-111, which was used for transfection of CHO cells; expressed in transfected cells
Experimental: (§1) For determination of EC50 values, the CHO cell lines in which human-, mouse- and rat-derived GPR40 was stably expressed were used. Unless otherwise indicated, these CHO cell lines were incubated in α-MEM medium (Invitrogen) supplemented with 10% fetal calf serum (Invitrogen).
(§2) On the day before assay, the cells incubated to almost confluent stage were rinsed with PBS (Invitrogen), then scraped in 0.05% trypsin-EDTA solution (Invitrogen) and recovered by centrifugal operation. The number of the cells obtained was counted and diluted so as to contain 3×10^5 cells/1 mL of the medium. The dilution was dispensed in a Black welled 96-well plate (Coster) in 100 μL/well, followed by incubation overnight in a CO2 incubator. To the thus prepared CHO cells, various test samples were added and the changes in intracellular calcium level in this case were measured using FLIPR (Molecular Device). In order to determine the changes in the intracellular calcium ion level on FLIPR, the cells were pre-treated by the following procedures.
(§3) First, for the purpose of adding a fluorescent dye Fluo-3 AM (DOJIN) to the cells or washing the cells immediately before the FLIPR assay, an assay buffer was prepared. A solution obtained by adding 20 mL of 1M HEPES (pH 7.4) (DOJIN) to 1000 mL of HBSS (Invitrogen) was prepared (hereinafter HBSS/HEPES solution), to which 10 mL of a solution mixture obtained by dissolving 710 mg of Probenecid (Sigma) in 5 mL of 1N NaOH and further adding 5 mL of HBSS/HEPES solution was added. The resulting solution was used as the assay buffer. Next, 50 μg of Fluo-3AM was dissolved in 21 μL of DMSO (Wako) and an equal volume of 20% Pulronic acid (Molecular Probes) was added to and mixed with the solution. The mixture was then added to 10.6 mL of the assay buffer supplemented with 105 μL of fetal calf serum to prepare a fluorescent dye solution. […], the medium for the CHO cells again plated in a Black welled 96-well plate was removed. Immediately thereafter, the fluorescent dye solution was dispensed in 100 μL each/well and the cells were incubated in a CO2 incubator for an hour so that the fluorescent dye was taken up into the cells. The cells after the incubation was washed with the assay buffer described above and set on FLIPR. […] After the pre-treatment above was made, the changes in intracellular calcium level after the addition of various test samples were measured on FLIPR.

Rat GPR40 = molecular target: T3, Rat GPR40 (Rattus norvegicus, UniProt Q8K3T4); assay: EC50 by FLIPR calcium assay in CHO cells stably expressing rat GPR40; format: cell-based; conditions: intracellular calcium, FLIPR, stable CHO line
T3 construct: expressed in transfected cells
Experimental: as §1, §2, §3

Mouse GPR40 = molecular target: T4, Mouse GPR40 (Mus musculus, UniProt Q76JU9); assay: EC50 by FLIPR calcium assay in CHO cells stably expressing mouse GPR40; format: cell-based; conditions: intracellular calcium, FLIPR, stable CHO line
T4 construct: expressed in transfected cells
Experimental: as §1, §2, §3

[1] = tested on: mouse pancreatic β cell line MIN6; assay: Insulin secretion from MIN6 in KRBH buffer (immunoassay); format: cell-based; conditions: 22 mM glucose KRBH, 90 minutes
Experimental: The mouse pancreatic β cell line MIN6 incubated in a flask was scraped in PBS containing 2.5 mM EDTA and plated in a 96-well plate followed by incubation for 2 days. The medium used was the same as in EXAMPLE 24, namely, 4.5 g/l of glucose-containing Dulbecco's Modified Eagle Medium (DMEM, Invitrogen, Inc.) supplemented with 15% fetal calf serum (ThermoTrace, Inc.), 5.5 μM 2-mercaptethanol (Invitrogen, Inc.), 20 mM HEPES pH 7.3, 100 U/ml penicillin and 100 μg/ml streptomycin. The cells were washed twice with modified Krebs-Ringer bicarbonate buffer (KRBH, 116 mM NaCl, 4.7 mM KCl, 1.2 mM KH2PO4, 1.2 mM MgSO4, 2.5 mM CaCl2, 25 mM NaHCO3, 24 mM HEPES, pH 7.3), followed by preincubation at 37° C. in 5% CO2 for 30 minutes. The fatty acid diluted/prepared using the aforesaid KRBH buffer added with 22 mM glucose was added to the cells after the preincubation, followed by incubation under the conditions of 37° C. in 5% CO2 for 90 minutes. After the incubation, the supernatant of the cells was recovered and stored in a frozen state. The insulin content in the supernatant was assayed using an insulin immunoassay kit commercially available (Amersham Pharmacia, Inc.).
Based on the method of EXAMPLE 25, effects of glucose level when added with fatty acids were examined. The level of glucose, which was added to KRBH upon the addition of fatty acids, was varied to 0, 5.5, 11 and 22 mM to study the effects.
The insulin secretion enhancing activity in the m40i103-introduced MIN6 cells using HVJ Envelope VECTOR KIT GenomONE based on the method of EXAMPLE 18 was examined. The insulin secretion enhancing activity by fatty acids was examined according to the method of EXAMPLE 25.
Based on the procedures of EXAMPLE 25, an essential prerequisite of Ca^2+ ions in the extracellular fluid was examined. In preincubation and incubation with a sample, Ca^2+ ions were removed and 0.1 mM EGTA, which was a reagent for chelating Ca^2+ ions, was further added, and then the insulin secretion enhancing activity by fatty acids was examined in this case.
Based on the method of EXAMPLE 25, effects of Ca^2+ channel blocker (Nifedipine) and MAP kinase inhibitor (PD98059) were examined. In preincubation and incubation with a sample, the insulin secretion enhancing activity by fatty acids was examined when Nifedipine (10 μM) or PD98059 (50 μM) was added.
It is known that fatty acids have the property of binding to albumin. Based on the method of EXAMPLE 25, effects were examined when bovine serum albumin (BSA) was present. In preincubation and incubation with a sample, the insulin secretion activity by fatty acids was examined when 0.1% BSA was added to the buffer.

MIN6 cells = assay: FLIPR intracellular calcium assay using MIN6; format: cell-based, mouse; conditions: 10 μM fatty acid
Experimental: Mouse pancreatic β cell line MIN6 incubated in a flask was scraped using PBS containing 2.5 mM EDTA and diluted so as to contain 3×10^5 cells/1 mL of the medium. The dilution was dispensed in a Black welled 96-well plate (Coster) in 100 μL/well, followed by incubation in a CO2 incubator for 2 days. The medium used was 4.5 g/l of glucose-containing Dulbecco's Modified Eagle Medium (DMEM, Invitrogen, Inc.) supplemented with 15% fetal calf serum (ThermoTrace, Inc.), 5.5 μM 2-mercaptethanol (Invitrogen, Inc.), 20 mM HEPES pH 7.3, 100 U/ml penicillin and 100 μg/ml streptomycin. To the thus prepared MIN6 cells, various fatty acids (10 μM) were added and the changes in intracellular calcium level in this case were measured using FLIPR (Molecular Device). The changes in the intracellular calcium ion level on FLIPR were assayed in accordance with the procedures described in EXAMPLE 24.

[2] = tested on: mouse insulinoma MIN6 cells; assay: Insulin secretion from MIN6 cells with free fatty acid-BSA mixture (RIA); format: cell-based; conditions: 300 μM to 1000 μM; fatty acid-BSA 4:1; 11 mM glucose; 90 (or 60) minutes
Experimental: The MIN6 cells were cultured in DMEM (high glucose, Invitrogen) containing 15% FCS (Trace Scientific Ltd.), 55 μM 2-mercaptoethanol, 100 U/ml penicillin and 100 μg/ml streptomycin, unless otherwise indicated. MIN6 cells were plated in a 96-well plate in 10^5 cells/well, followed by incubation at 37° C. for 3 days in a CO2 incubator adjusted to a concentration of 5% CO2. The medium was replaced by RPMI1640 (glucose free, Invitrogen) containing 10% FCS (Trace Scientific Ltd.), 5.5 mM glucose, 100 U/ml penicillin and 100 μg/ml streptomycin, followed by incubation for further 24 hours. After the medium was removed by suction, a solution mixture of free fatty acid-bovine serum albumin (BSA) (in a molar ratio of 4:1) diluted with RPMI1640 (glucose free, Invitrogen) containing 10% FCS (Trace Scientific Ltd.), 11 mM glucose, 100 U/ml penicillin and 100 μg/ml streptomycin was added to the cells, followed by reacting in a CO2 incubator adjusted to a 5% CO2 concentration at 37° C. for 90 minutes (or 60 minutes). After the reaction, the 96-well plate was centrifuged at 1500 rpm for 5 minutes and the culture supernatant was then recovered. The amount of insulin secreted into the culture supernatant was determined by radioimmunoassay (RIA) using the rat insulin RIA system (Amersham Pharmacia).

T2 sequence (O14842 whole entry, the tested form may be a part): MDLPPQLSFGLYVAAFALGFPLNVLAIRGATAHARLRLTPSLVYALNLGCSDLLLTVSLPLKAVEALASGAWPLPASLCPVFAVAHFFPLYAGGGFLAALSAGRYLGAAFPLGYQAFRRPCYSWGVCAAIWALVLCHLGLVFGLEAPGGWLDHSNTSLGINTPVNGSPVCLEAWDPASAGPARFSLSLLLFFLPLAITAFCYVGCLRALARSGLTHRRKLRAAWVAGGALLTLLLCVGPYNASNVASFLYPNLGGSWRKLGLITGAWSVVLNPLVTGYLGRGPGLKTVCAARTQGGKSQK
T1 sequence (O14842 whole entry, the tested form may be a part): as above
T3 sequence (Q8K3T4 whole entry): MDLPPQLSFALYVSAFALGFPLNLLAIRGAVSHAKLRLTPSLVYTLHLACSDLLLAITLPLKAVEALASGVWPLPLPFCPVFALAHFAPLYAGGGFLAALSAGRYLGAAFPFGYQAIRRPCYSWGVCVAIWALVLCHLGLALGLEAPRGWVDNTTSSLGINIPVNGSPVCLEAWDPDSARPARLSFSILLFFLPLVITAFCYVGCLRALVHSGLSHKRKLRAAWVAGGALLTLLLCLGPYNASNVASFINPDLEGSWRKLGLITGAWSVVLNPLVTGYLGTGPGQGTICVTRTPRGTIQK
T4 sequence (Q76JU9 whole entry): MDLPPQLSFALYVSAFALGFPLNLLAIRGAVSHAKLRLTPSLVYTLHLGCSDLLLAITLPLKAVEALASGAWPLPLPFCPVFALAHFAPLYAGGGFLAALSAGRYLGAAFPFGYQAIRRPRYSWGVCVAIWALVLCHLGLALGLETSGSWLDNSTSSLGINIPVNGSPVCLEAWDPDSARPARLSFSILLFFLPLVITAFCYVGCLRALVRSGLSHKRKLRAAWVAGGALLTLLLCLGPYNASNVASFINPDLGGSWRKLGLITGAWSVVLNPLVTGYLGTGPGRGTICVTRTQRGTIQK

| Compound | response (increase in intracellular calcium level) of GPR40-expressing CHO cell line (human-derived GPR40) | EC50 (human GPR40) [µM] | further results |
| --- | --- | --- | --- |
| CCCCCC=CCC=CCC=CCC1OC1CCCC(=O)O (mixture of isomers) [5,6-Epoxyeicosatrienoic acid, (±)5(6)-epoxy-8Z,11Z,14Z-eicosatrienoic acid] | specifically responsive | 7.7 ± 0.2 | – |
| CCCCCC=CCC=CCC1OC1CC=CCCCC(=O)O (mixture of isomers) [8,9-Epoxyeicosatrienoic acid, (±)8(9)-epoxy-5Z,11Z,14Z-eicosatrienoic acid] | specifically responsive | 6.1 ± 0.2 | – |
| CCCCC/C=C\C/C=C\CCCCCCCC(=O)OC [Methyl linolate] | – | – | EC50 Rat GPR40 (Rat GPR40): inactive; EC50 Mouse GPR40 (Mouse GPR40): inactive; EC50 Human GPR40 (human GPR40): inactive; insulin secretion enhancing activity [1]: did not show any significant insulin secretion enhancing activity; intracellular Ca^2+ level in MIN6 (MIN6 cells): not observed |
| CCCCCCCCCCCCCCCC(=O)O [Palmitic acid (C16), Palmitic acid] | – | 6.8 ± 0.5 | EC50 (Rat GPR40; read-out: EC50 Rat GPR40): 6.6 ± 0.4 µM; EC50 (Mouse GPR40; read-out: EC50 Mouse GPR40): 4.6 ± 1.2 µM; insulin secretion by MIN6 cells [2]: promoted |

More lines, main results first:

| response (increase in intracellular calcium level) of GPR40-expressing CHO cell line (human-derived GPR40) | EC50 (human GPR40) [µM] | Compound | further results |
| --- | --- | --- | --- |
| specifically responsive | 1.4 ± 0.3 | CCCCCC=CCC1OC1CC=CCC=CCCCC(=O)O (mixture of isomers) [11,12-Epoxyeicosatrienoic acid, (±)11(12)-epoxy-5Z,8Z,14Z-eicosatrienoic acid] | – |
| specifically responsive | 1.1 ± 0.4 | CCCCCC(O)C(O)CC=CCC=CCC=CCCCC(=O)O (mixture of isomers) [14,15-Dihydroxyeicosatrienoic acid, (±)14,15-dihydroxy-5Z,8Z,11Z-eicosatrienoic acid] | – |
| specifically responsive | – | CCCCCC1OC1C/C=C\C/C=C\C/C=C\CCCC(=O)O (racemic) [14,15-EET, (±)14(15)-epoxy-5Z,8Z,11Z-eicosatrienoic acid] | – |
